Experimental data taken from patent US5773414A, “Endothelin antagonists” (Warner-Lambert Company, priority 1997, dated 1998).
pIC50: −log10 of the molar value. Numbered stars: 1 amine (or outer) side, 2 acyl side, 3 side chain; on linkers, the order of the positions; unused ones are H or OH. Square brackets hold non-standard residues; d marks the D form. Peptide text beside a SMILES is read from it. * marks the point of attachment. Acetyl(1-adamantyl) = O=C(CC12CC3CC(CC(C3)C1)C2)*; dDip = N[C@@H](C(=O)O)C(c1ccccc1)c1ccccc1; Acetyl(3-pyridyl) = O=C(Cc1cccnc1)*; Fmoc = O=C(OCC1c2ccccc2-c2ccccc21)*; Cyclohexylacetyl = O=C(CC1CCCCC1)*; X1 = CC(C(=O)*)(c1ccccc1)c1ccccc1; Orn = NCCC[C@H](N)C(=O)O; NHcHex = C1CCC(N*)CC1; CO = O=C([*:1])[*:2]; Propionyl = CCC(=O)*

Legend:
ETB = target: T1, ETB (Rattus norvegicus, UniProt P21451); assay: Endothelin Receptor Binding Assay-B (ETB), [125I]-ET-1 binding in rat cerebellar membranes; settings: Table IIa; rat cerebellar membranes; read-out: Binding Assay IC50 at Receptor Subtypes ETB
T1 construct: thaw one aliquot of frozen rat cerebellar membranes; from tissue; host or cells: rat cerebellar membranes
T1 sequence (P21451 27-442): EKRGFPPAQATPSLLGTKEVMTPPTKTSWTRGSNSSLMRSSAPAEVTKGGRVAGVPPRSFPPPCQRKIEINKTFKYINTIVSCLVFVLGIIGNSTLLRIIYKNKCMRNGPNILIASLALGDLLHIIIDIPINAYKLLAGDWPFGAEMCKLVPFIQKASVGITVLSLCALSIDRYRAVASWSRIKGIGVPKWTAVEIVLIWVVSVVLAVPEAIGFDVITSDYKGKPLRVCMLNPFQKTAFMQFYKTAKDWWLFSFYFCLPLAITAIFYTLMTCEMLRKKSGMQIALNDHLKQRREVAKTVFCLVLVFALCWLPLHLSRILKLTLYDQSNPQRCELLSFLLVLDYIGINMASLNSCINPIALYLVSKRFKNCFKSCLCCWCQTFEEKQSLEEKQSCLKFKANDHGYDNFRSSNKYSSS
Experimental: The tissue is made up of 20 mM tris(hydroxymethyl)aminomethane hydrochloride (Trizma) buffer, 2 mM ethylenediaminetetraacetate, 100 μM phenylmethylsulfonyl fluoride.
First, thaw one aliquot of frozen rat cerebellar membranes (2 mg protein in 0.5 mL). Next, add 0.5 mL membrane aliquot to 4.5 mL cold tissue buffer, polytron at 7,500 revolutions per minute for 10 seconds. Finally, dilute tissue suspension 1/100 (0.1 mL suspension+9.9 mL tissue buffer), polytron again, and place ice.
Mix in 150 μL of tissue to each tube, vortex briefly, then tap to force all liquids to bottom (total assay volume=250 μL). Then place the tubes in a 37° C. water bath for 2 hours.
Add 2.5 mL cold water buffer (50 mM Trizma buffer) to each tube, filter, and then wash tube with additional 2.5 mL wash buffer and add to filter. Finally, wash filters with an additional 2.5 mL of cold wash buffer.
Count filters for radioactivity in gamma counter.

ETA = target: T2, ETA (Oryctolagus cuniculus, UniProt A5A8K3); assay: Endothelin Receptor Binding Assay-A (ETA), intact cell binding of [125I]-ET-1; design: species or system rabbit; settings: Table IIa; rabbit renal artery vascular smooth muscle cells; read-out: Binding Assay IC50 at Receptor Subtypes ETA
T2 construct: The cells used were rabbit renal artery vascular smooth muscle cells; endogenous in cells; host or cells: rabbit renal artery vascular smooth muscle cells
T2 sequence (A5A8K3 21-427): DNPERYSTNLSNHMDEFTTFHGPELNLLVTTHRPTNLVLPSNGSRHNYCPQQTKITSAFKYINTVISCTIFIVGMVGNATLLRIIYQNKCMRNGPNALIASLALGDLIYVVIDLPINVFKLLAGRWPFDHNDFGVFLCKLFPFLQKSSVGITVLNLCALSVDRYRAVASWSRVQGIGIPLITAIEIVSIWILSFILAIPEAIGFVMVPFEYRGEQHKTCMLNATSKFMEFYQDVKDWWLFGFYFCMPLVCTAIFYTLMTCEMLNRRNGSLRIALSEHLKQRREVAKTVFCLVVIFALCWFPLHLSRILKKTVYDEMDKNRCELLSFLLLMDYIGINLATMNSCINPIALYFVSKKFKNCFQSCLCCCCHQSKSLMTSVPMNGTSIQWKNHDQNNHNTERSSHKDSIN
Experimental: The cells used were rabbit renal artery vascular smooth muscle cells grown in a 48-well dish (1 cm^2) (confluent cells).
The growth media was Dulbeccos Modified Eagles/Ham's F12 which contained 10 fetal bovine serum and antibiotics (penicillin/streptomycin/fungizone).
Second, remove the assay buffers, place the dish on ice, and add 150 μL of cold assay buffer described above to each well. […] Next, place dish in a 37° C. water bath for about 2 hours and gently agitate the dish every 15 minutes. Discard the radioactive incubation mixture in the sink and wash wells 3 times with 1 mL of cold phosphate buffered saline. Last, add […] of 0.25M sodium hydroxide, agitate for 1 hour on rotator, and then transfer the sodium hydroxide extract to gamma counting tubes and count the radioactivity.

| Compound | pIC50 (ETB) | pIC50 (ETA) |
| --- | --- | --- |
| CC[C@H](C)[C@H](NC(=O)[C@H](CC(=O)O)NC(=O)[C@H](CC(C)C)NC(=O)[C@@H](Cc1ccccc1)NC(C)=O)C(=O)N[C@H](C(=O)N[C@@H](Cc1c[nH]c2ccccc12)C(=O)O)[C@@H](C)CC [Example 1, Ac--D--Phe--Leu--Asp--Ile--Ile--Trp] (Ac-[dF]LDIIW-OH) | 5.48 | – |
| CC[C@H](C)[C@H](NC(=O)[C@H](CC(=O)O)NC(=O)[C@H](CCCN)NC(=O)[C@@H](Cc1ccccc1)NC(C)=O)C(=O)N[C@H](C(=O)N[C@@H](Cc1c[nH]c2ccccc12)C(=O)O)[C@@H](C)CC [Example 8, Ac--D--Phe--Orn--Asp--Ile--Ile--Trp] (Ac-[dF][Orn]DIIW-OH) | 5.40 | – |
| CC[C@H](C)[C@H](NC(=O)[C@H](CC(=O)O)NC(=O)[C@H](CCC(=O)O)NC(=O)[C@@H](Cc1ccccc1)NC(C)=O)C(=O)N[C@H](C(=O)N[C@@H](Cc1c[nH]c2ccccc12)C(=O)O)[C@@H](C)CC [Example 9, Ac--D--Phe--Glu--Asp--Ile--Ile--Trp] (Ac-[dF]EDIIW-OH) | 5.89 | 6.19 |
| CC[C@H](C)[C@H](NC(=O)[C@H](CC(=O)O)NC(=O)[C@H](CC(C)C)NC(=O)[C@@H](Cc1ccc(O)cc1)NC(C)=O)C(=O)N[C@H](C(=O)N[C@@H](Cc1c[nH]c2ccccc12)C(=O)O)[C@@H](C)CC [Example 10, Ac--D--Tyr--Leu--Asp--Ile--Ile--Trp] (Ac-[dY]LDIIW-OH) | – | 6.40 |
| CC[C@H](C)[C@H](NC(=O)[C@H](Cc1ccccc1)NC(=O)[C@H](CC(C)C)NC(=O)[C@H](NC(C)=O)C(c1ccccc1)c1ccccc1)C(=O)N[C@H](C(=O)N[C@@H](Cc1c[nH]c2ccccc12)C(=O)O)[C@@H](C)CC [Example 16, Ac--D--Dip--Leu--Phe--Ile--Ile--Trp] (Ac-[dDip]LFIIW-OH) | 8.10 | 6.00 |
| CC[C@H](C)[C@H](NC(=O)[C@H](CCC(=O)O)NC(=O)[C@H](CC(=O)O)NC(=O)[C@H](CC(C)C)NC(=O)[C@H](NC(C)=O)C(c1ccccc1)c1ccccc1)C(=O)N[C@@H](Cc1c[nH]c2ccccc12)C(=O)O [Example 19, Ac--D--Dip--Leu--Asp--Glu--Ile--Trp] (Ac-[dDip]LDEIW-OH) | 5.22 | 6.00 |
| CC[C@H](C)[C@H](NC(=O)[C@H](CC(=O)O)NC(=O)[C@H](CC(C)C)NC(=O)[C@H](NC(C)=O)C(c1ccccc1)c1ccccc1)C(=O)N[C@H](C(=O)N[C@@H](Cc1c[nH]c2ccccc12)C(N)=O)[C@@H](C)CC [Example 24, Ac--D--Dip--Leu--Asp--Ile--Ile--Trp--NH2] (Ac-[dDip]LDIIW-NH2) | 5.30 | 6.49 |
| CC[C@H](C)[C@H](NC(=O)[C@H](CC(=O)O)NC(=O)[C@H](CC(C)C)NC(=O)C(C)(c1ccccc1)c1ccccc1)C(=O)N[C@H](C(=O)N[C@@H](Cc1c[nH]c2ccccc12)C(=O)O)[C@@H](C)CC [Example 28, Bppa--Leu--Asp--Ile--Ile--Trp] (X1-LDIIW-OH) | 5.77 | 5.10 |
| CC[C@H](C)[C@H](NC(=O)[C@H](CC(=O)O)NC(=O)[C@H](CC(C)C)NC(=O)[C@H](NC(=O)OCC1c2ccccc2-c2ccccc21)C(c1ccccc1)c1ccccc1)C(=O)N[C@H](C(=O)N[C@@H](Cc1c[nH]c2ccccc12)C(=O)O)[C@@H](C)CC [Example 30, Fmoc--D--Dip--Leu--Asp--Ile--Ile--Trp] (Fmoc-[dDip]LDIIW-OH) | 5.22 | 5.22 |
| CCC(=O)N[C@@H](C(=O)N[C@@H](CC(C)C)C(=O)N[C@@H](CC(=O)O)C(=O)N[C@H](C(=O)N[C@H](C(=O)N[C@@H](Cc1c[nH]c2ccccc12)C(=O)O)[C@@H](C)CC)[C@@H](C)CC)C(c1ccccc1)c1ccccc1 [Example 31, Et--D--Dip--Leu--Asp--Ile--Ile--Trp] (Propionyl-[dDip]LDIIW-OH) | 5.70 | 5.74 |
| CC[C@H](C)[C@H](NC(=O)[C@H](CC(=O)O)NC(=O)[C@H](CC(C)C)NC(=O)[C@H](NC(=O)Cc1cccnc1)C(c1ccccc1)c1ccccc1)C(=O)N[C@H](C(=O)N[C@@H](Cc1c[nH]c2ccccc12)C(=O)O)[C@@H](C)CC [Example 33, Pya--D--Dip--Leu--Asp--Ile--Ile--Trp] ({Acetyl(3-pyridyl)}-[dDip]LDIIW-OH) | 6.74 | 5.30 |
| CC[C@H](C)[C@H](NC(=O)[C@H](CC(=O)O)NC(=O)[C@H](CC(C)C)NC(=O)[C@H](NC(=O)CC1CCCCC1)C(c1ccccc1)c1ccccc1)C(=O)N[C@H](C(=O)N[C@@H](Cc1c[nH]c2ccccc12)C(=O)O)[C@@H](C)CC [Example 34, Cxl--D--Dip--Leu--Asp--Ile--Ile--Trp] (Cyclohexylacetyl-[dDip]LDIIW-OH) | 6.70 | 5.47 |
| CC[C@H](C)[C@H](NC(=O)[C@H](CC(=O)O)NC(=O)[C@H](CC(C)C)NC(=O)[C@H](NC(=O)CC12CC3CC(CC(C3)C1)C2)C(c1ccccc1)c1ccccc1)C(=O)N[C@H](C(=O)N[C@@H](Cc1c[nH]c2ccccc12)C(=O)O)[C@@H](C)CC [Example 35, Ada--D--Dip--Leu--Asp--Ile--Ile--Trp] ({Acetyl(1-adamantyl)}-[dDip]LDIIW-OH) | 6.30 | 5.40 |
| CC[C@H](C)[C@H](NC(=O)[C@H](CC(=O)O)NC(=O)[C@H](CC(C)C)NC(=O)[C@H](NC(=O)NC1CCCCC1)C(c1ccccc1)c1ccccc1)C(=O)N[C@H](C(=O)N[C@@H](Cc1c[nH]c2ccccc12)C(=O)O)[C@@H](C)CC [Example 36, Cxl(U)--D--Dip--Leu--Asp--Ile--Ile--Trp] ({NHcHex-CO}-[dDip]LDIIW-OH) | 7.30 | 6.09 |
| CC[C@H](C)[C@H](NC(=O)[C@H](CC(=O)O)NC(=O)[C@H](CC(C)C)NC(=O)[C@H](NC(=O)NC)C(c1ccccc1)c1ccccc1)C(=O)N[C@H](C(=O)N[C@@H](Cc1c[nH]c2ccccc12)C(=O)O)[C@@H](C)CC [Example 37, Me(U) --D--Dip--Leu--Asp--Ile--Ile--Trp] ({NHMe-CO}-[dDip]LDIIW-OH) | 5.82 | 6.00 |
| CC[C@H](C)[C@H](NC(=O)[C@H](CC(=O)O)NC(=O)[C@H](CC(C)C)NC(=O)[C@H](N)C(c1ccccc1)c1ccccc1)C(=O)N[C@H](C(=O)N[C@@H](Cc1c[nH]c2ccccc12)C(=O)O)[C@@H](C)CC [Example 49, D--Dip--Leu--Asp--Ile--Ile--Trp] (H-[dDip]LDIIW-OH) | – | 5.68 |
| CC[C@H](C)[C@H](NC(=O)[C@H](CC(=O)O)NC(=O)[C@H](Cc1ccccc1)NC(=O)[C@@H](Cc1ccccc1)NC(C)=O)C(=O)N[C@H](C(=O)N[C@@H](Cc1c[nH]c2ccccc12)C(=O)O)[C@@H](C)CC [Example 60, Ac--D--Phe--Phe--Asp--Ile--Ile--Trp] (Ac-[dF]FDIIW-OH) | 6.52 | – |
| CC[C@H](C)[C@H](NC(=O)[C@H](CC(=O)O)NC(=O)[C@@H](Cc1ccccc1)NC(=O)[C@@H](Cc1ccccc1)NC(C)=O)C(=O)N[C@H](C(=O)N[C@@H](Cc1c[nH]c2ccccc12)C(=O)O)[C@@H](C)CC [Example 61, Ac--D--Phe--D--Phe--Asp--Ile--Ile--Trp] (Ac-[dF][dF]DIIW-OH) | 8.00 | – |
| CC[C@H](C)[C@H](NC(=O)[C@H](Cc1ccccc1)NC(=O)[C@H](CC(C)C)NC(=O)[C@@H](Cc1ccccc1)NC(C)=O)C(=O)N[C@H](C(=O)N[C@@H](Cc1c[nH]c2ccccc12)C(=O)O)[C@@H](C)CC [Example 67, Ac--D--Phe--Leu--Phe--Ile--Ile--Trp] (Ac-[dF]LFIIW-OH) | 7.46 | – |
